Measurements reported in ChEMBL document CHEMBL2380302, “Synthesis of 3-O-propargylated betulinic acid and its 1,2,3-triazoles as potential apoptotic agents” (Eur J Med Chem, 2013).

Legend:
THP-1 [1] = assay: Cytotoxicity against human THP1 cells after 48 hrs by SRB assay; format: functional, cell-based; conditions: THP-1, 48 h
HEp-2 [2] = assay: Cytotoxicity against human Hep2 cells at 50 uM after 48 hrs by SRB assay; format: functional; conditions: HEp-2, 48 h, read-out: GI
HEp-2 [3] = assay: Cytotoxicity against human Hep2 cells at 10 uM after 48 hrs by SRB assay; format: functional; conditions: HEp-2, 48 h, read-out: GI
MCF7 [4] = assay: Cytotoxicity against human MCF7 cells at 50 uM after 48 hrs by SRB assay; format: functional; conditions: MCF7, 48 h, read-out: GI
HCT-15 [5] = assay: Cytotoxicity against human HCT15 cells at 30 uM after 48 hrs by SRB assay; format: functional; conditions: HCT-15, 48 h, read-out: GI
SF-295 [6] = assay: Cytotoxicity against human SF295 cells at 50 uM after 48 hrs by SRB assay; format: functional; conditions: SF-295, 48 h, read-out: GI
SF-295 [7] = assay: Cytotoxicity against human SF295 cells after 48 hrs by SRB assay; format: functional, cell-based; conditions: SF-295, 48 h
PC-3 [8] = assay: Cytotoxicity against human PC3 cells at 10 uM after 48 hrs by SRB assay; format: functional; conditions: PC-3, 48 h, read-out: GI
DU-145 [9] = assay: Cytotoxicity against human DU145 cells at 10 uM after 48 hrs by SRB assay; format: functional; conditions: DU-145, 48 h, read-out: GI
HL-60 [10] = assay: Cytotoxicity against human HL60 cells after 48 hrs by SRB assay; format: functional, cell-based; conditions: HL-60, 48 h
DU-145 [11] = assay: Cytotoxicity against human DU145 cells at 50 uM after 48 hrs by SRB assay; format: functional; conditions: DU-145, 48 h, read-out: GI
DU-145 [12] = assay: Cytotoxicity against human DU145 cells at 30 uM after 48 hrs by SRB assay; format: functional; conditions: DU-145, 48 h, read-out: GI
HL-60 [13] = assay: Cytotoxicity against human HL60 cells at 30 uM after 48 hrs by SRB assay; format: functional; conditions: HL-60, 48 h, read-out: GI
HCT-15 [14] = assay: Cytotoxicity against human HCT15 cells at 10 uM after 48 hrs by SRB assay; format: functional; conditions: HCT-15, 48 h, read-out: GI
A549 [15] = assay: Cytotoxicity against human A549 cells at 30 uM after 48 hrs by SRB assay; format: functional; conditions: A549, 48 h, read-out: GI
HCT-15 [16] = assay: Cytotoxicity against human HCT15 cells after 48 hrs by SRB assay; format: functional, cell-based; conditions: HCT-15, 48 h
HCT-15 [17] = assay: Cytotoxicity against human HCT15 cells at 50 uM after 48 hrs by SRB assay; format: functional; conditions: HCT-15, 48 h, read-out: GI
THP-1 [18] = assay: Cytotoxicity against human THP1 cells at 10 uM after 48 hrs by SRB assay; format: functional; conditions: THP-1, 48 h, read-out: GI
PC-3 [19] = assay: Cytotoxicity against human PC3 cells at 50 uM after 48 hrs by SRB assay; format: functional; conditions: PC-3, 48 h, read-out: GI
DU-145 [20] = assay: Cytotoxicity against human DU145 cells after 48 hrs by SRB assay; format: functional, cell-based; conditions: DU-145, 48 h
MCF7 [21] = assay: Cytotoxicity against human MCF7 cells at 30 uM after 48 hrs by SRB assay; format: functional; conditions: MCF7, 48 h, read-out: GI
SF-295 [22] = assay: Cytotoxicity against human SF295 cells at 10 uM after 48 hrs by SRB assay; format: functional; conditions: SF-295, 48 h, read-out: GI
A549 [23] = assay: Cytotoxicity against human A549 cells at 10 uM after 48 hrs by SRB assay; format: functional; conditions: A549, 48 h, read-out: GI
THP-1 [24] = assay: Cytotoxicity against human THP1 cells at 30 uM after 48 hrs by SRB assay; format: functional; conditions: THP-1, 48 h, read-out: GI
A549 [25] = assay: Cytotoxicity against human A549 cells after 48 hrs by SRB assay; format: functional, cell-based; conditions: A549, 48 h
PC-3 [26] = assay: Cytotoxicity against human PC3 cells at 30 uM after 48 hrs by SRB assay; format: functional; conditions: PC-3, 48 h, read-out: GI
HEp-2 [27] = assay: Cytotoxicity against human Hep2 cells after 48 hrs by SRB assay; format: functional, cell-based; conditions: HEp-2, 48 h
HL-60 [28] = assay: Cytotoxicity against human HL60 cells at 50 uM after 48 hrs by SRB assay; format: functional; conditions: HL-60, 48 h, read-out: GI
PC-3 [29] = assay: Cytotoxicity against human PC3 cells after 48 hrs by SRB assay; format: functional, cell-based; conditions: PC-3, 48 h
A549 [30] = assay: Cytotoxicity against human A549 cells at 50 uM after 48 hrs by SRB assay; format: functional; conditions: A549, 48 h, read-out: GI
MCF7 [31] = assay: Cytotoxicity against human MCF7 cells at 10 uM after 48 hrs by SRB assay; format: functional; conditions: MCF7, 48 h, read-out: GI
HL-60 [32] = assay: Cytotoxicity against human HL60 cells at 10 uM after 48 hrs by SRB assay; format: functional; conditions: HL-60, 48 h, read-out: GI
SF-295 [33] = assay: Cytotoxicity against human SF295 cells at 30 uM after 48 hrs by SRB assay; format: functional; conditions: SF-295, 48 h, read-out: GI
HEp-2 [34] = assay: Cytotoxicity against human Hep2 cells at 30 uM after 48 hrs by SRB assay; format: functional; conditions: HEp-2, 48 h, read-out: GI
MCF7 [35] = assay: Cytotoxicity against human MCF7 cells after 48 hrs by SRB assay; format: functional, cell-based; conditions: MCF7, 48 h
THP-1 [36] = assay: Cytotoxicity against human THP1 cells at 50 uM after 48 hrs by SRB assay; format: functional; conditions: THP-1, 48 h, read-out: GI

C=C(C)[C@@H]1CC[C@]2(C(=O)O)CC[C@]3(C)[C@H](CC[C@@H]4[C@@]5(C)CC[C@H](OCc6cn(-c7ccc(C(=O)c8ccccc8)cc7)nn6)C(C)(C)[C@@H]5CC[C@]43C)[C@@H]12
IC50 (THP-1 [1]): 44 µM
inhibition of growth at 50 µM (HEp-2 [2]): 25%
inhibition of growth at 10 µM (HEp-2 [3]): 25%
inhibition of growth at 50 µM (MCF7 [4]): 44%
inhibition of growth at 30 µM (HCT-15 [5]): 41%
inhibition of growth at 50 µM (SF-295 [6]): 12%
IC50 (SF-295 [7]): > 50 µM
inhibition of growth at 10 µM (PC-3 [8]): 6%
inhibition of growth at 10 µM (DU-145 [9]): 6%
IC50 (HL-60 [10]): 40 µM
inhibition of growth at 50 µM (DU-145 [11]): 50%
inhibition of growth at 30 µM (DU-145 [12]): 9%
inhibition of growth at 30 µM (HL-60 [13]): 30%
inhibition of growth at 10 µM (HCT-15 [14]): 43%
inhibition of growth at 30 µM (A549 [15]): 37%
IC50 (HCT-15 [16]): > 50 µM
inhibition of growth at 50 µM (HCT-15 [17]): 46%
inhibition of growth at 10 µM (THP-1 [18]): 3%
inhibition of growth at 50 µM (PC-3 [19]): 3%
IC50 (DU-145 [20]): 50 µM
inhibition of growth at 30 µM (MCF7 [21]): 25%
inhibition of growth at 10 µM (SF-295 [22]): 8%
inhibition of growth at 10 µM (A549 [23]): 32%
inhibition of growth at 30 µM (THP-1 [24]): 24%
IC50 (A549 [25]): 36 µM
inhibition of growth at 30 µM (PC-3 [26]): 4%
IC50 (HEp-2 [27]): > 50 µM
inhibition of growth at 50 µM (HL-60 [28]): 94%
IC50 (PC-3 [29]): > 50 µM
inhibition of growth at 50 µM (A549 [30]): 58%
inhibition of growth at 10 µM (MCF7 [31]): 29%
inhibition of growth at 10 µM (HL-60 [32]): 6%
inhibition of growth at 30 µM (SF-295 [33]): 19%
inhibition of growth at 30 µM (HEp-2 [34]): 26%
IC50 (MCF7 [35]): > 50 µM
inhibition of growth at 50 µM (THP-1 [36]): 91%

C=C(C)[C@@H]1CC[C@]2(C(=O)O)CC[C@]3(C)[C@H](CC[C@@H]4[C@@]5(C)CC[C@H](OCc6cn(-c7ccc(Cl)cc7)nn6)C(C)(C)[C@@H]5CC[C@]43C)[C@@H]12
IC50 (THP-1 [1]): 10 µM
inhibition of growth at 50 µM (HEp-2 [2]): 55%
inhibition of growth at 10 µM (HEp-2 [3]): 28%
inhibition of growth at 50 µM (MCF7 [4]): 80%
inhibition of growth at 30 µM (HCT-15 [5]): 53%
inhibition of growth at 50 µM (SF-295 [6]): 32%
IC50 (SF-295 [7]): > 50 µM
inhibition of growth at 10 µM (PC-3 [8]): 22%
inhibition of growth at 10 µM (DU-145 [9]): 28%
IC50 (HL-60 [10]): 5.5 µM
inhibition of growth at 50 µM (DU-145 [11]): 55%
inhibition of growth at 30 µM (DU-145 [12]): 43%
inhibition of growth at 30 µM (HL-60 [13]): 74%
inhibition of growth at 10 µM (HCT-15 [14]): 46%
inhibition of growth at 30 µM (A549 [15]): 59%
IC50 (HCT-15 [16]): 13 µM
inhibition of growth at 50 µM (HCT-15 [17]): 66%
inhibition of growth at 10 µM (THP-1 [18]): 50%
inhibition of growth at 50 µM (PC-3 [19]): 53%
IC50 (DU-145 [20]): 34 µM
inhibition of growth at 30 µM (MCF7 [21]): 63%
inhibition of growth at 10 µM (SF-295 [22]): 5%
inhibition of growth at 10 µM (A549 [23]): 52%
inhibition of growth at 30 µM (THP-1 [24]): 69%
IC50 (A549 [25]): 8 µM
inhibition of growth at 30 µM (PC-3 [26]): 40%
IC50 (HEp-2 [27]): 44 µM
inhibition of growth at 50 µM (HL-60 [28]): 96%
IC50 (PC-3 [29]): 43 µM
inhibition of growth at 50 µM (A549 [30]): 83%
inhibition of growth at 10 µM (MCF7 [31]): 42%
inhibition of growth at 10 µM (HL-60 [32]): 61%
inhibition of growth at 30 µM (SF-295 [33]): 20%
inhibition of growth at 30 µM (HEp-2 [34]): 43%
IC50 (MCF7 [35]): 15 µM
inhibition of growth at 50 µM (THP-1 [36]): 94%
